Measured values as given in patent US10799442B2, “Compounds useful in the treatment and/or care of the skin, hair, nails, and/or mucous membranes” (LUBRIZOL ADVANCED MATERIALS, INC., priority 2015, dated 2020).

Legend:
Assay type in all cases: cell-based, Human
[1] = test system: Keratin 10; assay: Keratins expression profile in HEKa with 1 mM CaCl2, Real Time PCR Arrays (Keratin 10); conditions: Keratin 10 mRNA, 48 hours
Method: The candidate compound is assayed for its ability to recover the basal keratinocyte state. The keratinocytes of the four layers of the epidermis present different expression patterns of keratins. Basal keratinocytes strongly express Keratin 14 and when differentiated, Keratin 10 is increased. To elucidate the keratinocyte state (basal or differentiated), the expression profile of keratins is analyzed by Real Time PCR Arrays, using a 96-well panel for use with SYBR® Green (BioRad) to detect mRNA expression levels of two keratin genes (Keratins 10 and 14) plus three housekeeping genes, and five controls, in Human Epidermal Keratinocytes from adult (HEKa) (Cascade Biologics).
HEKa cells are seeded at 6.0×10^5 cells/well in 6-well plates and incubated in culture medium Epilife with defined Growth Supplement (EDGS) (Cascade Biologics), for 24 hours at 37° C. in a water-saturated atmosphere of 95% air and 5% CO2. After 24 hours, the medium is removed and the cells are incubated with the synthetic peptide candidate at several concentrations in culture medium that contains 1 mM CaCl2) (Sigma) to induce differentiation of keratinocytes. Cells are incubated with 1 mM CaCl2) in culture medium and this provides a positive control of differentiation. Cells are incubated with culture medium only and these provide basal conditions. After 48 hours of treatment at 37° C. in a CO2 incubator, the cells are lysed directly in the wells, and RNA is purified following the protocol described on the RNeasy Mini kit (Qiagen) according to the manufacture's protocol. After RNA elution, quantification and analysis of purity of RNA samples are performed with a biophotometer (Eppendorf). […] SYBR Green binds to double-stranded DNA molecules and emits fluorescence which is quantified; the fluorescence intensity is proportional to the amount of the product in the PCR reaction. […] Fold change relative to the expression of the sample genes and reference genes is calculated using normalized expression (ΔΔ(Ct)) method using CFX Manager Software (BioRad).

[2] = test system: OCT4; assay: Modulation of stem cell markers in HEKa, Real Time PCR Arrays (OCT4 mRNA); conditions: 48 hours
Method: (§1) The candidate compound is evaluated for the modulation of several stem cell markers, those transcription factors regulated by miRNA145 (SOX2, OCT4, KLF4 and MYC). Gene expression profiles are analyzed by Real Time PCR Arrays using a 96-well panel for use with SYBR® Green (BioRad) to detect mRNA expression levels of stem cell markers plus three housekeeping genes, and five controls, in Human Epidermal Keratinocytes from adult (HEKa) (Cascade Biologics).
(§2) HEKa cells are seeded at 6.0×10^5 cells/well in 6-well plates and incubated in culture medium, Epilife with defined Growth Supplement (EDGS) (Cascade Biologics), for 24 hours at 37° C. in a water-saturated atmosphere of 95% air and 5% CO2. After 24 hours, the medium is removed and the cells are incubated with the synthetic peptide DD14024 at several concentrations in a culture medium. Cells are incubated with culture medium only and these provide the basal conditions. After 48 hours of treatment at 37° C. in a CO2 incubator, the cells are lysed directly in the wells, and RNA is purified following the protocol described on the RNeasy Mini kit (Qiagen) according to the manufacturer's protocol. After RNA elution, quantification and analysis of purity of RNA samples are performed with a biophotometer (Eppendorf). For each sample, 2 μg of high quality RNA is retrotranscribed with iScript Advanced (BioRad) in a final volume of 20 μl. The complete reaction mix is incubated in a thermal cycler (Eppendorf) at 42° C. for 30 minutes and the reaction is stopped at 85° C. for 5 minutes (?). Complementary DNA is amplified by qPCR in a real-time PCR thermocycler (BioRad) using SYBR Green Supermix (BioRad) in the 96-well panel for use with SYBR® Green (BioRad). SYBR Green binds to double-stranded DNA molecules and emits fluorescence which is quantified; the fluorescence intensity is proportional to the amount of the product in the PCR reaction. […] Fold change relative to the expression of the sample genes and reference genes is calculated using normalized expression (ΔΔ(Ct)) method using CFX Manager Software (BioRad). […]

[3] = test system: SOX2; assay: Modulation of stem cell markers in HEKa, Real Time PCR Arrays (SOX2 mRNA); conditions: 48 hours
Method: as §1, §2

## Ac-QEMRMQ-OH [DD14024, Ac-Gln-Glu-Met-Arg-Met-Gln-OH]
[1]; 1 mM CaCl2, 0.001 mg/ml
  Fold induction respect to positive control of differentiation: 0.68 ± 0.04
[1]; 1 mM CaCl2, 0.005 mg/ml
  Fold induction respect to positive control of differentiation: 0.60 ± 0.02
[1]; 1 mM CaCl2, 0.01 mg/ml
  Fold induction respect to positive control of differentiation: 0.72 ± 0.06
[2]; 0.001 mg/ml
  Fold induction respect to basal conditions: 1.65 ± 0.13
[2]; 0.005 mg/ml
  Fold induction respect to basal conditions: 1.81 ± 0.28
[2]; 0.01 mg/ml
  Fold induction respect to basal conditions: 1.71 ± 0.29
[3]; 0.001 mg/ml
  Fold induction respect to basal conditions: 1.62 ± 0.18
[3]; 0.005 mg/ml
  Fold induction respect to basal conditions: 3.00 ± 0.55
[3]; 0.01 mg/ml
  Fold induction respect to basal conditions: 2.81 ± 0.26
